Test results reported in patent US20140329863A1 (priority 2011, published 2014).
Like-named read-outs stand apart in the source and are kept apart here.

Experiments:
N2a-cl3 cells = assay: cells; conditions: Mus musculus, N2a-cl3, read-out: Dividing Calcein EC50 (μM) Mean (n = 3)
[1] = test system: PrP^Sc in dividing ScN2a-cl3 cells; type: cell-based, mouse; design: Dividing ELISA pEC50 (μM) 1st Expt. / Dividing ELISA pEC50 (μM) 2nd Expt. / Dividing ELISA pEC50 (μM) 3rd Expt. / Dividing ELISA pEC50 (μM) Mean: unit not given here
[2] = test system: MDCK-MDR^1 cells (P-glycoprotein); assay: Bidirectional MDCK-MDR1 cell permeability; type: in vitro ADME, canine
Description: MDCK-MDR^1 cells were grown to confluence for 5-10 days on 1-μm filters in 24-well plates {Hilgers, 1990}. Aliquots of DMSO stocks were diluted into Hank's balanced salt solution (HBSS), pH 7.4, containing […] to give 10-μM solute concentration. The solute containing donor solutions were transferred to either the apical or basolateral chamber of the permeability diffusion apparatus. Receiver solutions consisted of HBSS (pH 7.4) containing 25 mM HEPES+0.05% PS80. Sequential samples of transported solute were taken at 20-min intervals using an automated liquid handling platform. The concentration of transported solute during each sampling interval was determined by HPLC/UV/MS. Permeability coefficients were calculated for each sampling interval. The average and standard deviation from the intervals are reported. Mass balance in the system was ascertained by comparing the sum of total transported solute and remaining donor solute with the starting mass of solute and is expressed as a percentage of donor solute at time zero. […] In the event of mass balance less than 70%, the cell monolayers were extracted with ACN and analyzed for the solute of interest. Determinations were conducted in duplicate.

[3] = Hepatic microsomal stability, rat; conditions: […]
[4] = […]
[5] = test system: PrP^Sc in nondividing ScN2a-cl3 cells; type: cell-based, mouse; conditions: read-out: Non-Dividing ELISA EC50 (μM) Mean (n = 3); ScN2a-c13 non-dividing cells; mean n = 3
MDCK-MDR1 cells = assay: Permeability in MDCK-MDR1 cells; conditions: MDR1-MDCK cell monolayers; for Permeability PA→B: apical to basal; for Permeability PB→A: basal to apical
[6] = ScN2a-cl3 dividing cells, 1st determination
[7] = ScN2a-cl3 dividing cells, 2nd determination
[8] = ScN2a-cl3 dividing cells, 3rd determination
[9] = ScN2a-cl3 dividing cells, mean of three determinations
[10] = read-out: Antiprion activity ScN2a-cl3 EC50, ScN2a-cl3 cells
[11] = read-out: Dividing ELISA EC50 (μM) 1st Expt., ScN2a-cl3 dividing cells, 1st determination
[12] = read-out: Dividing ELISA EC50 (μM) 2nd Expt., ScN2a-cl3 dividing cells, 2nd determination
[13] = read-out: Dividing ELISA EC50 (μM) 3rd Expt., ScN2a-cl3 dividing cells, 3rd determination
[14] = read-out: Dividing ELISA EC50 (μM) Mean, ScN2a-cl3 dividing cells, mean of three determinations

| SMILES | EC50 (N2a-cl3 cells) | Dividing ELISA pEC50 (μM) 1st Expt. [1, 6] | Dividing ELISA pEC50 (μM) 2nd Expt. [1, 7] | Dividing ELISA pEC50 (μM) 3rd Expt. [1, 8] | Dividing ELISA pEC50 (μM) Mean [1, 9] | EC50 [1, 10] | EC50 [1, 11] | EC50 [1, 12] | EC50 [1, 13] | EC50 [1, 14] | P-gp substrate status, absorptive vs secretory permeability [2] | Microsome stability T1/2 [3] | metabolic stability (in words) [4] | EC50 [5] | Permeability PA→B (MDCK-MDR1 cells) | Permeability PB→A (MDCK-MDR1 cells) | melting point |
| --- | --- | --- | --- | --- | --- | --- | --- | --- | --- | --- | --- | --- | --- | --- | --- | --- | --- |
| COc1ccc(-c2csc(Nc3ccc(C(F)(F)F)cn3)n2)cc1OC [compound 12, [4-(3,4-dimethoxyphenyl)-thiazol-2-yl]-(5-trifluoromethylpyridin-2-yl)-amine] | > 32 µM | 5.53 | 5.69 | 5.58 | 5.60 | 2.53 µM | 2.93 µM | 2.05 µM | 2.62 µM | 2.53 µM | greater permeability in the absorptive direction | 2.5 h | excellent stability | > 32 µM | 9.4 10^−6 cm/sec | 8.7 10^−6 cm/sec |  |
| COc1ccc(-c2csc(Nc3ccc4ccccc4n3)n2)cc1OC [compound 18, [4-(3,4-dimethoxyphenyl)-thiazol-2-yl]-quinolin-2-yl-amine] | > 32 µM | 6.31 | 6.47 | 6.34 | 6.38 | 0.43 µM | 0.486 µM | 0.34 µM | 0.453 µM | 0.426 µM | greater permeability in the absorptive direction | 1.15 h | excellent stability | > 32 µM | 9.2 10^−6 cm/sec | 8.9 10^−6 cm/sec |  |
| Cc1ccc(Nc2nc(-c3c(-c4ccccc4)noc3C)cs2)nc1 [compound 28, [4-(5-Methyl-3-phenylisoxazol-4-yl)-thiazol-2-yl]-(5-methylpyridin-2-yl)-amine] | > 32 µM | 4.52 | 4.82 | >4.5 |  | > 26 µM | 30 µM | 15.2 µM | > 32 µM | > 26 µM | greater permeability in the absorptive direction | 0.317 h |  | > 32 µM | 11.2 10^−6 cm/sec | 8.6 10^−6 cm/sec | 267 to 269 °C |
